Source: PubChem BioAssay AID248 (DTP/NCI, 2004)
Several values for one entry are separate records, joined by “and”; a condition that tells them apart may be missing. Equal values may be shown once. Inconclusive results and toxic doses are left out. Rule as the data show it: active = T/C of 150% or more; inactive = T/C below 125%.

Test system: L1210 leukemia ip in BDF1 mice, survival T/C
Experiment: NCI In Vivo Anticancer Drug Screen. Data for tumor model L1210 Leukemia (intraperitoneal) in B6D2F1 (BDF1) mice
Conditions: higher = longer survival
Summary of the method: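 Value reflects the ratio of survival in compound-treated mice to survival in vehicle-treated controls, with both groups carrying the same transplanted tumor.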

[1] = endpoint: mean survival time, dose: 100.0 mg/kg/injection, schedule: Q04DX002 (ip), vehicle: Klucel (hydroxypropylcellulose) (HPC)
[2] = endpoint: mean survival time, dose: 100.0 mg/kg/injection, schedule: Q01DX009 (ip), vehicle: Klucel (hydroxypropylcellulose) (HPC)
[3] = endpoint: mean survival time, dose: 100.0 mg/kg/injection, schedule: Q04DX003 (ip), vehicle: Klucel (hydroxypropylcellulose) (HPC)
[4] = endpoint: mean survival time, dose: 200.0 mg/kg/injection, schedule: Q04DX003 (ip), vehicle: Klucel (hydroxypropylcellulose) (HPC)
[5] = endpoint: mean survival time, dose: 400.0 mg/kg/injection, schedule: Q01DX009 (ip), vehicle: Klucel (hydroxypropylcellulose) (HPC)
[6] = endpoint: mean survival time, dose: 400.0 mg/kg/injection, schedule: Q04DX003 (ip), vehicle: Klucel (hydroxypropylcellulose) (HPC)
[7] = endpoint: mean survival time, dose: 200.0 mg/kg/injection, schedule: Q04DX002 (ip), vehicle: Klucel (hydroxypropylcellulose) (HPC)
[8] = endpoint: mean survival time, dose: 400.0 mg/kg/injection, schedule: Q04DX002 (ip), vehicle: Klucel (hydroxypropylcellulose) (HPC)
[9] = endpoint: mean survival time, dose: 100.0 mg/kg/injection, schedule: Q04DX003 (ip), vehicle: saline with Tween-80

Measured: T/C

NC(N)=NCCCS
inactive: endpoint: mean survival time, dose: 75.0 mg/kg/injection, schedule: Q01DX001 (ip), vehicle: saline 104 % of control | endpoint: mean survival time, dose: 150.0 mg/kg/injection, schedule: Q01DX001 (ip), vehicle: saline 104 % of control | endpoint: mean survival time, dose: 300.0 mg/kg/injection, schedule: Q01DX001 (ip), vehicle: saline 104 % of control

O=C(O)c1cc(=O)[nH]c(=O)[nH]1
inactive: [1] 100 % of control

CC[C@@H](c1ccc(O)cc1)[C@@H](CC)c1ccc(O)cc1
inactive: endpoint: mean survival time, dose: 25.0 mg/kg/injection, schedule: Q01DX009 (sc), vehicle: steriod suspending solution 100 % of control and 108 % of control | endpoint: mean survival time, dose: 25.0 mg/kg/injection, schedule: Q01DX010 (sc), vehicle: steriod suspending solution 101 % of control | endpoint: mean survival time, dose: 50.0 mg/kg/injection, schedule: Q01DX009 (sc), vehicle: steriod suspending solution 96 % of control and 100 % of control | endpoint: mean survival time, dose: 50.0 mg/kg/injection, schedule: Q01DX010 (sc), vehicle: steriod suspending solution 95 % of control | endpoint: mean survival time, dose: 100.0 mg/kg/injection, schedule: Q01DX009 (sc), vehicle: steriod suspending solution 96 % of control and 102 % of control | endpoint: mean survival time, dose: 100.0 mg/kg/injection, schedule: Q01DX010 (sc), vehicle: steriod suspending solution 98 % of control | endpoint: mean survival time, dose: 125.0 mg/kg/injection, schedule: Q01DX Z (ip), vehicle: carboxymethylcellulose (CMC) 91 % of control | endpoint: mean survival time, dose: 200.0 mg/kg/injection, schedule: Q01DX009 (sc), vehicle: steriod suspending solution 93 % of control and 99 % of control | endpoint: mean survival time, dose: 200.0 mg/kg/injection, schedule: Q01DX010 (sc), vehicle: steriod suspending solution 95 % of control | endpoint: median survival time, dose: 25.0 mg/kg/injection, schedule: Q01DX009 (sc), vehicle: steriod suspending solution 100 % of control | endpoint: median survival time, dose: 50.0 mg/kg/injection, schedule: Q01DX009 (sc), vehicle: steriod suspending solution 100 % of control and 111 % of control | endpoint: median survival time, dose: 100.0 mg/kg/injection, schedule: Q01DX009 (sc), vehicle: steriod suspending solution 100 % of control and 111 % of control | endpoint: median survival time, dose: 200.0 mg/kg/injection, schedule: Q01DX009 (sc), vehicle: steriod suspending solution 100 % of control

Cc1cc(C)nc(NC(=O)Nc2ccccc2)c1
inactive: [2] 93 % of control | [3] 94 % of control | [4] 92 % of control | [5] 100 % of control | [6] 89 % of control

CC(=O)NNC(N)=S
inactive: [1] 87 % of control | [7] 87 % of control | [8] 97 % of control

CC(=O)OCC1OC(N2C(=O)/C(=C/c3ccc(N(C)C)cc3)SC2=S)C(OC(C)=O)C(OC(C)=O)C1OC(C)=O (stereo not drawn)
inactive: endpoint: mean survival time, dose: 25.0 mg/kg/injection, schedule: Q01DX005 (ip), vehicle: other 100 % of control | endpoint: mean survival time, dose: 50.0 mg/kg/injection, schedule: Q01DX005 (ip), vehicle: other 98 % of control | endpoint: mean survival time, dose: 100.0 mg/kg/injection, schedule: Q01DX005 (ip), vehicle: other 94 % of control | endpoint: mean survival time, dose: 200.0 mg/kg/injection, schedule: Q01DX005 (ip), vehicle: other 95 % of control | endpoint: mean survival time, dose: 400.0 mg/kg/injection, schedule: Q01DX005 (ip), vehicle: other 93 % of control

O=C(OCCOC(=O)c1cccc([N+](=O)[O-])c1)c1cccc([N+](=O)[O-])c1
inactive: endpoint: mean survival time, dose: 100.0 mg/kg/injection, schedule: Q01DX001 (ip), vehicle: other 95 % of control | endpoint: mean survival time, dose: 200.0 mg/kg/injection, schedule: Q01DX001 (ip), vehicle: other 96 % of control | endpoint: mean survival time, dose: 400.0 mg/kg/injection, schedule: Q01DX001 (ip), vehicle: other 96 % of control

COc1c(C(C)(C)C)cc([N+](=O)[O-])c(C)c1[N+](=O)[O-]
inactive: [2] 98 % of control | [3] 103 % of control | endpoint: mean survival time, dose: 200.0 mg/kg/injection, schedule: Q01DX009 (ip), vehicle: Klucel (hydroxypropylcellulose) (HPC) 103 % of control | [4] 102 % of control | [5] 96 % of control | [6] 94 % of control

NC1CCc2ccccc2-c2ccccc21 (stereo not drawn)
inactive: endpoint: mean survival time, dose: 10.0 mg/kg/injection, schedule: Q01DX001 (ip), vehicle: saline 101 % of control | endpoint: mean survival time, dose: 20.0 mg/kg/injection, schedule: Q01DX001 (ip), vehicle: saline 108 % of control | endpoint: mean survival time, dose: 40.0 mg/kg/injection, schedule: Q01DX001 (ip), vehicle: saline 101 % of control

O=C1OC(c2ccc([N+](=O)[O-])cc2)=N/C1=C\c1ccc(Cl)c(Cl)c1
inactive: [1] 108 % of control | [7] 97 % of control | [8] 101 % of control

CCCN(CCC)C(=O)SCC
inactive: endpoint: mean survival time, dose: 100.0 mg/kg/injection, schedule: Q01DX001 (ip), vehicle: saline with Tween-80 101 % of control | [9] 101 % of control and 105 % of control | endpoint: mean survival time, dose: 200.0 mg/kg/injection, schedule: Q01DX001 (ip), vehicle: saline with Tween-80 97 % of control | endpoint: mean survival time, dose: 200.0 mg/kg/injection, schedule: Q04DX003 (ip), vehicle: saline with Tween-80 100 % of control and 101 % of control | endpoint: mean survival time, dose: 400.0 mg/kg/injection, schedule: Q01DX001 (ip), vehicle: saline with Tween-80 97 % of control | endpoint: mean survival time, dose: 400.0 mg/kg/injection, schedule: Q04DX003 (ip), vehicle: saline with Tween-80 110 % of control and 117 % of control

C[N+]1=NN(c2nc[nH]c2C(N)=O)CC1
inactive: endpoint: mean survival time, dose: 100.0 mg/kg/injection, schedule: Q04DX002 (ip), vehicle: saline 96 % of control | endpoint: mean survival time, dose: 200.0 mg/kg/injection, schedule: Q04DX002 (ip), vehicle: saline 100 % of control | endpoint: mean survival time, dose: 400.0 mg/kg/injection, schedule: Q04DX002 (ip), vehicle: saline 115 % of control

CC(C)(Br)C(=O)c1ccc([N+](=O)[O-])o1
inactive: endpoint: mean survival time, dose: 12.5 mg/kg/injection, schedule: Q01DX009 (ip), vehicle: saline with Tween-80 97 % of control | endpoint: mean survival time, dose: 25.0 mg/kg/injection, schedule: Q01DX009 (ip), vehicle: saline with Tween-80 104 % of control | endpoint: mean survival time, dose: 25.0 mg/kg/injection, schedule: Q04DX003 (ip), vehicle: saline with Tween-80 104 % of control | endpoint: mean survival time, dose: 50.0 mg/kg/injection, schedule: Q01DX009 (ip), vehicle: saline with Tween-80 95 % of control | endpoint: mean survival time, dose: 50.0 mg/kg/injection, schedule: Q04DX003 (ip), vehicle: saline with Tween-80 96 % of control | [9] 99 % of control and 89 % of control

CCCCC1=CC(=O)C2CCCCC2C1=O (stereo not drawn)
inactive: endpoint: mean survival time, dose: 100.0 mg/kg/injection, schedule: Q01DX001 (ip), vehicle: Klucel (hydroxypropylcellulose) (HPC) 102 % of control | endpoint: mean survival time, dose: 200.0 mg/kg/injection, schedule: Q01DX001 (ip), vehicle: Klucel (hydroxypropylcellulose) (HPC) 105 % of control | endpoint: mean survival time, dose: 400.0 mg/kg/injection, schedule: Q01DX001 (ip), vehicle: Klucel (hydroxypropylcellulose) (HPC) 92 % of control
